# Data published in patent US20230407243A1, “GENETIC PLATFORM TO INVESTIGATE THE FUNCTIONS OF BACTERIAL DRUG EFFLUX PUMPS” (priority 2022, published 2023).
# Like-named read-outs stand apart in the source and are kept apart here.
# Tests used:
# Assay type in all cases: cell-based, Escherichia coli
# EKO-35-Pore = assay: MIC susceptibility profiling, porinated strain; details: for Fold changes of MICs: EKO-35-Pore compared to EKO-35-Pore (reference); for Minimum inhibitory concentration (MIC), Pore EKO-35 / Minimum inhibitory concentration, EKO-35-Pore / MIC: technical duplicate; for MIC: Escherichia coli
# Protocol: For genomic integration of the pore, the fhuA ΔC/Δ4L gene and the adjacent gentamicin resistance cassette were amplified using a high-fidelity polymerase and the fhuA_40_Up/gImS_3680_Low primers (Table 4). Integration of the pore gene was performed as described above. The pore gene was introduced into the intergenic region between the glmS and pstS genes, with gene expression under the control of a constitutive promoter (Kearse, M. et al., 2012). Genomic integrations were verified using PCR (Primers: pstS_520_Up/glmS_3680_Low, Table 4). Successful integrations were transformed with pCP20 to remove the gentamicin resistance cassette as previously described. Activity of the pore was confirmed through susceptibility testing with the large antibiotic vancomycin prior to phenotypic profiling and further susceptibility testing.
# (§1) Single colonies were used to inoculate 3 mL of LB followed by incubation at 37° C. for 18 h with aeration at 220 rpm. The bacterial cells were harvested by centrifugation and resuspended in phosphate buffered saline (PBS) ([pH 7.4], 137 mM NaCl (Bioshop), 2.7 mM KCl (Bioshop), 10 mM Na2PO4 (Bioshop) and 1.8 mM K2PO4) to an OD600 nm˜1.0, followed by 1/2000 dilution into MHB II.
# (§2) To a 384-well microtiter plate (Corning, untreated polystyrene), 500 nL of compound was dispensed, in duplicate, and serially titrated 2-fold using an Echo 550 acoustic liquid dispenser (Labcyte Inc.). […] As a solvent control, 500 nL of DMSO was applied to wells that contained no compound. Using a multichannel pipette, 50 μL of the prepared bacterial inoculum was applied to each well. To enable background correction post-incubation, the OD600 nm was measured (Biotek Synergy Neo2 microplate reader) prior to incubation. The plates were incubated at 37° C. with aeration at 900 rpm for 18 h. The plates were equilibrated to room temperature and the OD600 nm measured using a BioTek Synergy Neo2 microplate reader. Data was analyzed in both Prism (GraphPad, Version 9.2.0) and Microsoft Excel (Version 16.53). Raw data were input into Microsoft Excel and the pre-incubation OD600 nm measurements were subtracted from the post-incubation OD600 nm measurements. These corrected measurements were input into Prism 9 as a grouped analysis. […] All other MIC values were adjusted accordingly and visualized using the single-color scale grouped heat map function. Identification of compound chemical properties was achieved using DataWarrior (Version 5.5.0). Using PubChem, the SMILES chemical notation for each compound was obtained and compiled in Microsoft Excel. The resulting spreadsheet was input into DataWarrior and properties were calculated from the compound chemical structures.
# [1] = tested on: EKO-35 araC::mexCD (MexCD from P. aeruginosa); assay: MIC susceptibility profiling, efflux platform; details: for Fold change of MICs: EKO-35 araC::mexCD compared to EKO-35; for Minimum Inhibitory Concentration, EKO-35 araC::mexCD / MIC: Table 13B, non-porinated, technical duplicate; for MIC: read-out: Minimum Inhibitory Concentration, EKO-35 araC::mexCD
# Outline: (§3)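 Steps: LB overnight culture at 37 °C; resuspension in PBS to OD600 ~1.0; 1/2000 dilution in MHB II; addition to 2-fold serial compound dilutions (duplicate); 18 h shaking incubation at 37 °C; OD600 read, with pre-read subtracted.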
# EKO-35 araC::acrD = assay: MIC susceptibility profiling, efflux platform; details: for Fold change of MICs: EKO-35 araC::acrD compared to EKO-35
# Outline: as §3
# EKO-35 araC::mdtBC = assay: MIC susceptibility profiling, efflux platform; details: for Fold change of MICs: EKO-35 araC::mdtBC compared to EKO-35
# Outline: as §3
# EKO-35 araC::acrB = assay: MIC susceptibility profiling, efflux platform; details: for Fold change of MICs: EKO-35 araC::acrB compared to EKO-35
# Outline: as §3
# E. coli ΔtolC = assay: microbe, parasite or virus in culture; details: for Minimum inhibitory concentration (MIC), ΔtolC: Table 10, without pore; for Minimum inhibitory concentration (MIC), ΔtolC / Minimum Inhibitory Concentration, ΔtolC: technical duplicate; for Minimum Inhibitory Concentration, ΔtolC: Table 13A, non-porinated; for MIC: Escherichia coli, 18 h, read-out: Minimum Inhibitory Concentration, ΔtolC
# Protocol: as §1, §2
# [2] = tested on: wild-type E. coli K-12 str. BW25113; assay: microbe, parasite or virus in culture; details: technical duplicate; for MIC: Escherichia coli, BW25113
# Protocol: as §1, §2
# E. coli EKO-35 = assay: microbe, parasite or virus in culture; details: for Fold change of MICs: EKO-35 compared to EKO-35 (reference); for Minimum inhibitory concentration (MIC), EKO-35 / Minimum Inhibitory Concentration, EKO-35 / MIC: technical duplicate; for MIC: Escherichia coli, EKO35
# Protocol: as §1, §2
# [3] = Table 13A, non-porinated, technical duplicate
# [4] = Table 13B, non-porinated, technical duplicate
# [5] = Table 10, with pore, read-out: Minimum inhibitory concentration (MIC), Pore EKO-35
# [6] = Table 14A, porinated, read-out: Minimum inhibitory concentration, EKO-35-Pore
# [7] = Table 10, without pore, read-out: Minimum inhibitory concentration (MIC), K-12
# [8] = Table 13A, non-porinated, read-out: Minimum Inhibitory Concentration, K-12
# [9] = Table 10, without pore, read-out: Minimum inhibitory concentration (MIC), EKO-35
# [10] = Table 13A, non-porinated, read-out: Minimum Inhibitory Concentration, EKO-35
Compound,Fold changes of MICs (EKO-35-Pore) [fold],"Minimum inhibitory concentration (MIC), Pore EKO-35 (EKO-35-Pore; Table 10, with pore) [µg/mL]","Minimum inhibitory concentration, EKO-35-Pore (EKO-35-Pore; Table 14A, porinated) [µg/mL]",Fold change of MICs [1] [fold],"Minimum Inhibitory Concentration, EKO-35 araC::mexCD [1] [µg/mL]",Fold change of MICs (EKO-35 araC::acrD) [fold],"Minimum Inhibitory Concentration, EKO-35 araC::acrD (EKO-35 araC::acrD; [3]) [µg/mL]",Fold change of MICs (EKO-35 araC::mdtBC) [fold],"Minimum Inhibitory Concentration, EKO-35 araC::mdtBC (EKO-35 araC::mdtBC; [4]) [µg/mL]",Fold change of MICs (EKO-35 araC::acrB) [fold],"Minimum Inhibitory Concentration, EKO-35 araC::acrB (EKO-35 araC::acrB; [3]) [µg/mL]","Minimum inhibitory concentration (MIC), ΔtolC (E. coli ΔtolC) [µg/mL]","Minimum Inhibitory Concentration, ΔtolC (E. coli ΔtolC) [µg/mL]","Minimum inhibitory concentration (MIC), K-12 ([2]; Table 10, without pore) [µg/mL]","Minimum Inhibitory Concentration, K-12 ([2]; Table 13A, non-porinated) [µg/mL]",Fold change of MICs (E. coli EKO-35) [fold],"Minimum inhibitory concentration (MIC), EKO-35 (E. coli EKO-35; Table 10, without pore) [µg/mL]","Minimum Inhibitory Concentration, EKO-35 (E. coli EKO-35; Table 13A, non-porinated) [µg/mL]",MIC (EKO-35-Pore; [5]) [µg/mL],MIC (EKO-35-Pore; [6]) [µg/mL],further results
benzalkonium chloride,1,0.391,0.391,2,0.781,1,0.391,1,0.391,32,12.5,0.391,0.391,12.5,12.5,1,0.391,0.391,–,–,–
N#CC(=NNc1cccc(C(F)(F)F)c1)C(=O)c1ccsc1 [compound 3],1,320,320,1,320,1,320,1,320,1,320,2.5,2.5,320,320,1,320,320,–,–,–
Cn1cc(Br)c(-c2cccc(NC(=O)Nc3ccc(OC(F)(F)F)cc3)c2)n1 [compound 14],1,320,320,1,320,1,320,1,320,1,320,2.5,2.5,320,320,1,320,320,–,–,–
NC[C@H]1O[C@H](O[C@H]2[C@H](O)[C@@H](O[C@H]3O[C@H](CO)[C@@H](O)[C@H](N)[C@H]3O)[C@H](N)C[C@@H]2N)[C@H](O)[C@@H](O)[C@@H]1O [kanamycin],1,–,–,1,–,1,–,1,–,1,–,1.563,–,–,–,1,–,–,1.56,1.56,"MIC [1]: 1.56 µg/mL; MIC (E. coli ΔtolC): 1.56 µg/mL; MIC [2, 7]: 3.12 µg/mL; MIC [2, 8]: 3.12 µg/mL; MIC (E. coli EKO-35; [9]): 3.12 µg/mL; MIC (E. coli EKO-35; [10]): 3.12 µg/mL"
O=C(NC(=O)N1CCc2c([nH]c3ccccc23)C1C(F)(F)F)c1ccccc1 (stereo not shown) [compound 13],1,5,5,8,320,8,320,1,40,8,320,1.25,1.25,320,320,1,40,40,–,–,susceptibility of EKO-35 to the compound (E. coli EKO-35; synthetic efflux substrates of FIG. 12): susceptible
COc1cccc2c1C(=O)c1c(O)c3c(c(O)c1C2=O)C[C@@](O)(C(=O)CO)C[C@@H]3O[C@H]1C[C@H](N)[C@H](O)[C@H](C)O1 [doxorubicin],1,–,–,16,–,2,–,1,–,128,–,1.563,–,–,–,1,–,–,0.781,0.781,"MIC [1]: 25 µg/mL; MIC (EKO-35 araC::acrD; Escherichia coli, Table 13A, non-porinated, technical duplicate, read-out: Minimum Inhibitory Concentration, EKO-35 araC::acrD): 3.12 µg/mL; MIC (EKO-35 araC::mdtBC; Escherichia coli, Table 13B, non-porinated, technical duplicate, read-out: Minimum Inhibitory Concentration, EKO-35 araC::mdtBC): 1.56 µg/mL; MIC (EKO-35 araC::acrB; Escherichia coli, Table 13A, non-porinated, technical duplicate, read-out: Minimum Inhibitory Concentration, EKO-35 araC::acrB): 200 µg/mL; MIC (E. coli ΔtolC): 1.56 µg/mL; MIC [2, 7]: 200 µg/mL; MIC [2, 8]: 200 µg/mL; MIC (E. coli EKO-35; [9]): 1.56 µg/mL; MIC (E. coli EKO-35; [10]): 1.56 µg/mL"
